Measured values reported in US10028992B2, “Methods of treating muscular dystrophy” (BOARD OF REGENTS OF THE NEVADA SYSTEM OF HIGHER EDUCATION …, priority 2012, dated 2018).
Where two headings read alike, the source gives them in different places.

Tested on: α7 integrin promoter
Assay: muscle cell-based assay: α7βgal+/− myoblasts/myotubes, LacZ reporter, β-galactosidase cleavage of FDG
Parameters: species or system mouse
Conditions: for EC50: Mus musculus, read-out: Fit LogAC50 (converted)
Experimental: An α7 integrin null mouse was produced in which exon 1 of the gene encoding the α7 integrin was replaced by the LacZ reporter. In these mice, all the transcriptional regulatory elements of the α7 integrin promoter were retained, allowing β-galactosidase to report expression of 7 integrin. A primary myoblast cell line (designated α7βgal^+/−) isolated from 10 day old α7^+/− pups were analyzed for the ability of β-galactosidase to report α7 integrin expression. α7βgal^+/− myoblasts were differentiated and subjected to X-gal staining and western analysis (FIGS. 1A and 1B).
The activity of the α7 integrin promoter was measured by β-galactosidase cleavage of the non-fluorescent compound fluorescein di-β-D-galactopyranoside (FDG) to fluorescein. This assay was used to screen compound libraries to identify molecules that up-regulate α7 integrin expression in muscle.
Also evaluated was the effect of various isoforms of laminin and the ligand for α7β1 integrin on integrin expression. Positive hits were subjected to dose-response analysis, western analysis and a myostatin counterscreen (a negative regulator of muscle growth).

[1] = given as log AC50 (negative values)
[2] = curve class number, key not given
[3] = curve fit, activity at zero concentration

SMILES	EC50 [1] [µM]	Score (Table 12 compound data)	Fit Curve Class [2]	Fit HillSlope (curve fit)	Fit Zero Activity [%] [3] [%]	Fit Curve Class	Fit HillSlope	Fit Zero Activity [%]	Score	EC50 [µM]
Cc1ccc(NC(=O)COc2ccccc2CNC(C)(C)CC(C)(C)C)cc1 [Compound 131]	14.1	43	2.1	4.9549	8.7591					
Cc1nc2c([nH]1)OC(N)=C(C#N)C21CCN(Cc2ccccc2)CC1 [Compound 132]						2.1	4.9549	12.8108	43	12.6
O=C(CSc1nnc(C2CC2)n1C1CC1)c1cccs1 [Compound 133]	10	42	2.1	2.7202	−27.5656					
CSc1ncccc1C(=O)OCC(=O)c1cc(C)n(C)c1C [Compound 134]	10	42	2.1	4.4495	−22.5632					
CCc1c(C2(O)CCCCC2)[nH]c2ncccc12 [Compound 135]	10	42	2.1	4.9549	−29.3022					
O=C(Nc1ccc(S(=O)(=O)Nc2nccs2)cc1)c1ccccc1OC(F)F [Compound 137]	10	42	2.1	4.9549	−19.2861					
O=C1CCc2cc(S(=O)(=O)Nc3ccc(C(F)(F)F)cc3)cc3c2N1CC3 [Compound 138]	11.2	42	2.1	1.3437	−27.3652					
COc1ccccc1C(=O)NCC(=O)/N=N/c1c(O)n(C(C)C)c2ccccc12 [Compound 139]	11.2	42	2.1	4.5045	14.712					
Cn1ccc(C(=O)Nc2cccnc2Cl)n1 [Compound 140]	10	42	2.2	2.7868	−4.0391					
COC(=O)c1ccc(C2C(C(=O)c3cc4ccccc4o3)=C(O)C(=O)N2CCN2CCOCC2)cc1 (centres unmarked) [Compound 141]	10	42	2.1	4.9549	−17.8968					
COc1cc(NC(=O)C2C3C=CC(C3)C2C(=O)O)ccc1NC(=O)c1ccccc1 (centres unmarked) [Compound 142]	8.91	42	2.1	2.4064	−18.7775					
COCc1c(C(=O)N/N=C(\C)c2ccc(OCc3ccccc3)cc2)nnn1-c1nonc1N [Compound 143]	10	42	2.1	4.4495	4.6719					
O=C(Nc1ccc(N2CCN(C(=O)c3ccccc3F)CC2)cc1)c1cncc(Br)c1 [Compound 144]	12.6	42	2.1	4.095	9.7776					
COc1cc(NC(=O)CN(C)S(=O)(=O)c2ccc3c(c2)CC(C)N3C(C)=O)cc(OC)c1OC (centres unmarked) [Compound 145]	10	42	2.2	4.9549	0.4668					
CC(=O)c1ccc(N(C(=O)CNC(=O)c2ccco2)C(C(=O)NC2CCCC2)c2ccc(C)o2)cc1 (centres unmarked) [Compound 146]	10	42	2.1	4.9549						
Cc1nnc(NC(=O)CSc2nnc(CCNC(=O)c3ccccc3F)n2C)s1 [Compound 147]	11.2	42	2.1	2.0937	1.0531					
COc1ccc(CCNC(=O)Cn2nnc(C(=O)Nc3ccc(Br)cc3)c2N)cc1OC [Compound 148]	11.2	42	2.1	2.3531	−28.7719					
C/C(=N\NC(=O)c1cc(C)oc1C)c1ccc2ccccc2c1 [Compound 149]	8.91	42	2.2	1.111	−1.9678					
CC(C)c1ccc(NC(=O)CN2C(=O)c3ccccc3S2(=O)=O)cc1 [Compound 150]	10	42	2.2	4.5045	−0.2112					
CCCCC(C(=O)NC1CCCC1)N(C(=O)c1snc(C(N)=O)c1N)c1ccc(C)cc1 (centres unmarked) [Compound 151]	10	42	2.1	3.132	−26.3814					
COc1ccc(S(=O)(=O)Nc2ccc(S(=O)(=O)Nc3nccs3)cc2)cc1 [Compound 152]	12.6	42	2.2	1.1341	−8.4801					
Cc1cc(C(=O)Nc2cccc3ccccc23)c(C)o1 [Compound 153]	7.94	42	2.1	1.5095	−21.2671					
CC1(C)Cc2c(cnn2-c2cccc(F)c2)C(NC(=O)CCc2cnccn2)C1 (centres unmarked) [Compound 154]	3.16	42	2.1	0.9	−46.353					
Cc1c(C(=O)N2CCCCC2)c(S(=O)(=O)Nc2cccc(Br)c2)c(C)n1C [Compound 155]	10	42	2.1	3.99	−32.1225					
O=S(=O)(N/C(=N/C1CCCCC1)c1ccccc1F)c1ccccc1 [Compound 156]	10	42	2.2	2.5334	−0.0336					
O=[N+]([O-])c1cccc(S(=O)(=O)N2CCN(S(=O)(=O)N3CCOCC3)CC2)c1 [Compound 158]	10	42	2.2	1.9282	−0.5234					
CC(=O)Nc1ccc(NC(=O)c2cc(=O)c3cc(C)cc(C)c3o2)cc1 [Compound 159]	11.2	42	2.1	4.095	−2.9033					
COc1ccc(/C=C(\NC(=O)c2ccc(C)cc2)C(=O)Nc2ccc(C(=O)O)cc2)cc1 [Compound 160]	11.2	42	2.1	4.095	−2.4804					
O=S(=O)(c1ccccc1)N1CCCC(c2nc(O)c3nnn(Cc4cccc(Cl)c4)c3n2)C1 (centres unmarked) [Compound 161]	3.98	42	2.1	1.1	−42.9418					
COc1cccc(NC(=O)c2ccc3c(c2)CCCC3)c1 [Compound 162]	5.62	42	2.1	2.2526	−31.8121					
